Laboratory results reported in patent publication US6500421B1, “In vivo selection of primitive hematopoietic cells” (St. Jude Children's Research Hospital, priority 1999, dated 2002).

Columns and labels:
[1] = tested on: vector-expressing myeloid progenitor cells; settings: mice, human DHFR variant (Zhao et al. 1994); cited from earlier work
[2] = tested on: human myeloid progenitor cells; settings: in vitro, MTX-containing cultures, human DHFR variant (Flasshove et al. 1995); cited from earlier work
[3] = tested on: murine myeloid progenitors; test: Defined in vitro liquid culture of unseparated murine bone marrow, myeloid progenitor assay after four days; format: cell-based, mice; settings: TMTX 150 nM; for sensitization of progenitor cells to TMTX: TTI at 1.0 μM or 0.1 μM, 0.1 μM or 1 μM thymidine
Procedure: FIGS. 1a & 1b a show TTIs effectively block nucleoside salvage and potentiate TMTX toxicity at physiological concentrations of thyrnidine. Unseparated bone marrow from normal C57B1/6 or WBBF1+/+ mice were cultured in DMEM plus dialyzed FBS with or without 150 nM TMTX, […] hypoxanthine and 0.1, 1.0 or 10 μM thymidine. In addition, either A) NBMPR or B) draflazine at 0.1 or 1.0 μM were added to the indicated suspension cultures. Progenitors were assayed by a semisolid methylcellulose-based myeloid progenitor assay after four days of suspension culture.
We developed a defined in vitro liquid culture system to determine the mechanism by which murine myeloid progenitors escape killing with TMTX. This system involves the culture of unseparated murine bone marrow in medium supplemented with optimal concentrations of hematopoietic growth factors (IL-3 at 20 ng/ml, human IL-6 at 50 ng/ml, rat SCF at 50 ng/ml), and either undialyzed fetal bovine serum (FBS) or dialyzed FBS at 15% v/v final concentration, that has been depleted of detectable thymidine and hypoxanthine. The progenitor content is determined four days after culture initiation.
The number of progenitors in cultures without TMTX were similar using either dialyzed or undialyzed serum. However, TMTX addition (150 nM) allowed survival of at least 50% of the myeloid progenitors in cultures containing undialyzed serum compared to 5% progenitor survival in cultures containing dialyzed serum.
Thymidine transport inhibitors (TTI) were added to our defined liquid culture system. […] However, supraphysiological thymidine levels (10 μM) were able to overcome the TTI-specific blockage of thymidine import, restoring full progenitor survival.

[4] = tested on: murine myeloid progenitors; test: In vivo treatment of normal mice; bone marrow cellularity and myeloid progenitor content per femur; settings: for marrow cellularity / number of myeloid progenitors in the marrow: ip five consecutive days, 24 hrs after last treatment, TMTX 130 mg/kg, NBMPR-P 20 mg/kg, draflazine 20 mg/kg, alone or combined; for number of myeloid progenitors in the marrow: relative to untreated control mice
Procedure: FIGS. 3a & 3b show thymidine transport inhibitors sensitize murine progenitors to TMTX in vivo Normal C57B1/6, WBBF1+/+ or B6.C-H1^6/By (HW80) mice were administered TMTX (130 mg/kg), NBMPR-P (20 mg/kg) or draflazine (20 mg/kg) alone, or the combination of TMTX+NBMPR-P or TMTX+draflazine ip for five consecutive days. 24 hrs following the last treatment, mice were sacrificed and bone marrow cellularity and myeloid progenitor content per femur were analyzed relative to untreated mice.
To determine if the antifolate trimetrexate (TMTX), could be used to inhibit hematopoietic progenitor cells which had not been genetically modified to contain and express a mutant dihydrofolate reductase, we treated mice with high doses of TMTX and measured the myeloid progenitor and stem cell content in the bone marrow. Mice were intraperitoneally administered 100 or 130 mg/kg TMTX for five consecutive days. Bone marrow cellularity and progenitor content was examined relative to untreated mice 24 hrs after the final treatment. […] Thus, although differentiated murine hematopoietic cells are highly sensitive to TMTX in vivo, immature myeloid progenitors resist it's cytotoxic effects.
In order to determine whether the combination of TMTX and TTIs will kill murine myeloid progenitors in vivo, normal mice were intraperitoneally administered TMTX (130 mg/kg) together with either NBMPR-5′ monophosphate (NBMPR-P) (20 mg/kg) or draflazine (20 mg/kg) for five consecutive days. […] The myeloid progenitor content in the marrow was also measured following these various treatments. […] Thus, while TMTX alone is insufficient for the killing of myeloid progenitors in vivo, either draflazine or NBMPR-P can be used to sensitize progenitors to TMTX thereby allowing elimination of unmodified cells in vivo.

hematopoietic stem cells = test: Stem cell kill: marrow of treated C57B1/6J donors transplanted into W/Wv mice, hemoglobin electrophoresis; format: in vivo; settings: donors given five daily doses of TMTX at 100 mg/kg/day
Procedure: C57B1/6 donor mice were administered either 100 mg/kg TMTX, 100 mg/kg TMTX+20 mg/kg NBMPR-P, or 130 mg/kg TMTX+20 mg/kg NBMPR-P ip for five consecutive days. 24 hrs following the last treatment, bone marrow was harvested and transplanted into genetically anemic W/W^V mice. The hemoglobin phenotype of transplanted mnice was determined after 8 weeks.
The above experiments indicate that the combination of an antifolate (TMTX) and TTIs effectively eliminates unmodified myeloid progenitors. Although selection at the progenitor level should be useful in a number of circumstances, selection at the level of repopulating stem cells should give the most durable and stable selection of vectormodified cells. To test if the combination of TMTX and NBMPR-P could be used to kill unmodified stem cells, C57B1/6J mice were treated with various drug combinations (intraperitoneal injections at the following doses: trimetrexate at 130 mg/kg, NBMPR-P at 20 mg/kg, and draflazine at 20 mg/kg) and then used as donors for bone marrow transplantation. Stem cell viability was measured by hemoglobin electrophoresis patterns in W/Wv mice used as transplant recipients. […]
Repopulation can be monitored by hemoglobin electrophoresis, which can distinguish the pattern obtained from C57B1/6J erthryocytes versus the W/Wv background.

[5] = tested on: human myeloid progenitor cells; test: L22Y-DHFR or neo transduced human peripheral blood progenitors plated in semisolid media with TMTX; format: cell-based; settings: mobilized human peripheral blood progenitors, L22Y-DHFR versus neo transduced, TMTX 0 to 500 ng/ml in semisolid media
Procedure: Peripheral blood cells collected following chemotherapy and growth factor mobilization were prestimulated for 48 hrs with IL-3, IL-6 and SCF, followed by coculture on irradiated amphotropic retroviral producers (L22Y-DHFR or neo) for an additional 48 hrs. Nonadherent hematopoietic cells were then assayed for drug resistant progenitors by addition of increasing concentrations of TMTX to the semisolid methylcellulose cultures.
Human progenitor cells were transduced as follows. Mononuclear cells were isolated by passing peripheral blood cells over a Ficoll gradient. These cells were cultured at 5×10^5 cells/ml in the presence of human IL-3 at 20 ng/ml, human IL-6 at 50 ng/ml, and human SCF at 50 ng/ml and 15% v/v fetal calf serum. After 48 hours, these cells were placed on plates containing an irradiated confluent layer of fibroblasts that were producing the amphotropic L22Y vector. The cytokine concentrations during this coculture period were identical to that used during the previous prestimulation phase. Protamine sulfate was also included during the coculture phase at a concentration of 4 μg/ml. After 48 hours of coculture, cells were washed and plated in semisolid media obtained from Stem Cell Technologies according to manufacturers specifications. This media was pretreated with thymidine phosphorylase at 1 unit/3 ml of media. […]

[6] = tested on: human CD34 immunoselected progenitors; test: Human CD34-enriched peripheral blood progenitors in defined liquid culture; format: cell-based; settings: 1.0 μM draflazine, 150 nM trimetrexate, 100 μM hypoxanthine, thymidine 0 to 1.0 micromolar, dialyzed serum
Procedure: CD34-enriched, mobilized peripheral blood progenitors were assayed in the defined suspension culture system, as described for murine cells in the legend to FIG. 1. Two separate human samples were examined, and progenitor survival is represented relative to progenitors cultured without TMTX.
We examined the ability of draflazine to potentiate TMTX toxicity of human CD34 immunoselected progenitors in our defined liquid culture system comprising 15% dialyzed fetal calf serum, 20 ng/ml human IL-3, 50 ng/ml human IL-6, and 50 ng/ml human SCF in the presence-or absence of 1.0 μM draflazine, 100 μM hypoxanthine, 150 nM trimetrexate, and varying concentrations of thymidine ranging from 0 to 1.0 micromolar. […] CD34 selection was done using a Ceprate cell column (CellPro) according to the manufacturers instructions.

## CN(Cc1cnc2nc(N)nc(N)c2n1)c1ccc(C(=O)N[C@@H](CCC(=O)O)C(=O)O)cc1 [MTX, methotrexate]
[1]
  increase in vector-expressing myeloid progenitor cells following MTX treatment: 2 fold
[2]
  amplification of vector-expressing progenitor cells: amplified two-fold

## O=[N+]([O-])c1ccc(CSc2ncnc3c2ncn3[C@@H]2O[C@H](CO)[C@@H](O)[C@H]2O)cc1 [NBMPR, nitrobenzylmercaptopurine riboside]
[3]
  sensitization of progenitor cells to TMTX: effectively sensitized progenitor cells to TMTX

## O=[N+]([O-])c1ccc(CSc2ncnc3c2ncn3[C@@H]2O[C@H](COP(=O)(O)O)[C@@H](O)[C@H]2O)cc1 [NBMPR-P, NBMPR-5′ monophosphate]
[4]
  marrow cellularity: neither TTI alone had any measurable effect
  number of myeloid progenitors in the marrow: no effect on progenitor survival

## COc1cc(NCc2ccc3nc(N)nc(N)c3c2C)cc(OC)c1OC [TMTX, trimetrexate]
[4]; TMTX 100 or 130 mg/kg ip for five consecutive days, 24 hrs after final treatment
  number of myeloid progenitors and stem cells per femur: remained the same in all groups of mice
[4]; TMTX 100 or 130 mg/kg ip for five consecutive days, 24 hrs after final treatment, relative to untreated mice
  bone marrow cellularity: severe marrow hypoplasia
[4]
  number of myeloid progenitors in the marrow: modest increase
[3]; dialyzed serum treated with thymidine phosphorylase, hypoxanthine 100 μM alone added
  rescue of myeloid progenitors from TMTX toxicity: did not rescue myeloid progenitors from TMTX toxicity
[3]; dialyzed serum, both thymidine and hypoxanthine added
  myeloid progenitor survival: fully restored myeloid progenitor survival
[3]; dialyzed serum, four days
  progenitor survival: 5%
[3]; dialyzed serum, thymidine 1.0 μM alone added
  restoration of TMTX resistance of progenitors: did not restore TMTX resistance
[3]; undialyzed serum, four days
  survival of myeloid progenitors: at least 50%
Hematopoietic stem cells
  hematopoietic repopulating ability of donor marrow: failed to adversely effect
[5]
  TMTX resistance of L22Y-DHFR transduced progenitors: increased TMTX-resistance relative to control (neo) transduced progenitor cells

## NC(=O)C1CN(CCCCC(c2ccc(F)cc2)c2ccc(F)cc2)CCN1CC(=O)Nc1c(Cl)cc(N)cc1Cl (stereo not shown) [draflazine]
[4]
  marrow cellularity: neither TTI alone had any measurable effect
  number of myeloid progenitors in the marrow: no effect on progenitor survival
[3]
  sensitization of progenitor cells to TMTX: effectively sensitized progenitor cells to TMTX
[6]
  potentiation of TMTX toxicity: effectively potentiated TMTX toxicity
